# Laboratory results reported in patent publication US6531510B1, “N,N′-bis(2-hydroxybenzyl)ethylenediamine-N,N′-diacetic acid in iron chelating therapy” (University of Florida Research Foundation, Inc., priority 1998, dated 2003).
# Where a name gives a salt, the structure may show the parent alone.
# Legend:
# [1] = system: iron-loaded Cebus apella monkeys; assay: Chelator-induced iron excretion (iron-balance study) in iron-loaded Cebus apella monkeys; assay type: in vivo; settings: s.c., 150 μmoles/Kg; for efficiency of iron chelation: mean
# Method: After intramuscular anesthesia with ketamine, an intravenous infusion was started in a leg vein. […] Two to three infusions, separated by between 10 and 14 days, were necessary to provide about 500 mg iron per Kg body weight. […] At least twenty half-lives, sixty days, passed before using any of the animals in experiments evaluating iron-chelating agents.
# Seven days before the administration of the drug, the animals were placed in metabolic cages and started on a low-iron liquid diet. The monkeys were maintained on the low-iron liquid diet for the duration of the experiment. They were given food according to their body weight, and intake was very carefully monitored.
# Three days prior to drug administration, day −2 to day 0, baseline iron intake and output values were measured. This same measurement was made for day +1 to day +3. The total amount of iron intake was compared with the total amount of iron excreted.
# Fecal and urine samples were collected at 24 hour intervals. The collections began four days prior to the administration of the test drug and continued for an additional five days after the drug was given. Fecal samples were assayed for the presence of occult blood, weighed, and mixed with distilled deionized water prior to autoclaving for 30 minutes. The mixture was then freeze-dried, and a known portion of the powder was mixed with low-iron nitric acid and refluxed for 24 hours. Once any particulate matter in the digested samples was removed by centrifugation, iron concentrations were determined by flame atomic absorption. Monkey urine samples were acidified and reconstituted to initial volume after sterilization, if necessary.
# In the primates, DFOM was administered s.c. in sterile water for injection at a dose of 150 μmoles/Kg, while HBED was first dissolved in a phosphate buffer, ph 7.4, thus forming the mono-sodium salt and given s.c. in 40% wt./vol. Cremophor RH40 at a dose of 75 or 150 μmoles/Kg. In addition, in order to more closely mimic clinical applications in patients, mono-sodium HBED was also given to the monkeys s.c. at a dose of 150 μmoles/Kg in a phosphate buffer; no Cremophor vehicle was used.
# The efficiency of each chelator was calculated on the basis of a 1:1 ligand-iron complex.
# Groups of monkeys (n=6 in each group) were given s.c. injections of either DFOM or MS HBED. […] In our initial experiments, HBED monohydrochloride monohydrate was dissolved in a phosphate buffer at p.7.2 to form a solution of the MS HBED and administered in 40% wt./vol. […] HBED monohydrochloride monohydrate-Cremophor was administered by s.c. injection at doses of 75 or 150 μmoles/Kg.
# [2] = system: Cebus apella monkeys with iron overload; settings: cited from earlier work
# [3] = typical, background statement; cited from earlier work
# human patients = settings: oral; cited from earlier work
# Water solubility = assay type: physicochemical
smiles,measurement,setting,value
"CC(=O)N(O)CCCCCNC(=O)CCC(=O)N(O)CCCCCNC(=O)CCC(=O)N(O)CCCCCN [DFOM, desferrioxamine B mesylate]",share of chelator-induced iron excretion in the stool,[1]; aqueous solution,about 65%
same,share of chelator-induced iron excretion in the urine,[1]; aqueous solution,about 35%
same,chelator-induced iron excretion,"[1]; aqueous solution, n=6",435±115 μg Fe/Kg body weight
same,efficiency of iron chelation,[1]; aqueous solution,5.1±1.3%
same,activity in the Cebus apella monkey screen compared with oral HBED or its dimethyl ester,[2]; DFOM subcutaneous vs HBED or dimethyl ester oral,significantly higher activity
same,share of the compound administered that binds iron,[3],≤ 5%
"O=C(O)CN(CCN(CC(=O)O)Cc1ccccc1O)Cc1ccccc1O [HBED, N,N′-bis(2-hydroxybenzyl)ethylenediamine-N,N′-diacetic acid]",chelator-induced iron excretion,"[2]; oral, phosphate buffer, previously published study",50±44 μg Fe/Kg body weight
same,share of chelator-induced iron excretion in the stool,"[2]; oral, phosphate buffer",about 56%
same,share of chelator-induced iron excretion in the urine,"[2]; oral, phosphate buffer",about 44%
same,efficiency of iron chelation,"[2]; oral, phosphate buffer, mean",0.5±0.5%
same,level of iron excretion for treatment of iron overload,human patients,ineffective
Cl.O.O=C(O)CN(CCN(CC(=O)O)Cc1ccccc1O)Cc1ccccc1O [HBED monohydrochloride monohydrate],water solubility,Water solubility,low water solubility
"O=C([O-])CN(CCN(CC(=O)O)Cc1ccccc1O)Cc1ccccc1O.[Na+] [MS HBED, HBED, monosodium salt]","mean net iron excretion, phosphate buffer vs Cremophor preparation",[1]; P>0.2,no significant difference
same,share of chelator-induced iron excretion in the stool,[1]; phosphate buffer,about 92%
same,share of chelator-induced iron excretion in the urine,[1]; phosphate buffer,about 8%
same,iron excretion relative to DFOM,"[1]; phosphate buffer vs DFOM s.c. 150 μmoles/Kg, P<0.001",about twice
same,chelator-induced iron excretion,"[1]; phosphate buffer, no Cremophor",899±193 μg Fe/Kg body weight
same,efficiency of iron chelation,[1]; phosphate buffer,10.7±2.3%
